The record followed here is patent US20230075856A1, “CYCLIC SULFAMIDE COMPOUNDS FOR TREATMENT OF HBV” (Assembly Biosciences, Inc., priority 2018, published 2023).

The subject of one assay is HBV viral load production from HepAD38 cells. Put plainly: Viral production from HepAD38 cells: viral load in supernatant by qPCR of the HBV core sequence. Type of assay: cell-based. Particulars: 5 days incubation, qPCR of supernatant HBV DNA vs DMSO control, read-out: viral load lowering EC50 (Activity). The gist of the method: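 Viral load was measured by qPCR of the HBV core region in supernatant, quantified against DNA standards and compared with DMSO wells. Cells (50,000/well, tetracycline withdrawn, 2% FBS) received compound from 10 μM final for 5 days; EC50 from four-parameter nonlinear regression.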
As a reminder, the EC50 is the concentration at which the effect is half-maximal. `COc1ccc(CNC(=O)C2CC(C(=O)Nc3ccc(F)c(Cl)c3)N(C)S(=O)(=O)N2)cc1` (single isomer, unassigned) [Compound 717-ISOMER-B, N3-(3-chloro-4-fluoro-phenyl)-N5-[(4-methoxyphenyl)methyl]-2-methyl-1,1-dioxo-1,2,6-thiadiazinane-3,5-dicarboxamide]: the 50% effective concentration (EC50) is 50 to 100 nM.

As to `C[C@@H](NC(=O)C1CC(C(=O)Nc2ccc(F)c(Cl)c2)N(C)S(=O)(=O)N1)c1ccc(F)cc1` (single isomer, unassigned; isomer-a) [493-R-ISOMER-A], the 50% effective concentration (EC50) was less than 50 nM.

The same assay, now with this note: Hepatitis B virus, HePAD38, 120 h, 5 days incubation, qPCR of supernatant HBV DNA vs DMSO control, read-out: viral load lowering EC50 (Activity).
`CN1C(C(=O)Nc2ccc(F)c(Cl)c2)CC(C(=O)NCc2nn(-c3ccccc3)c3ccccc23)NS1(=O)=O` (single isomer, unassigned) [1072-ISOMER-A, N3-(3-chloro-4-fluoro-phenyl)-2-methyl-1,1-dioxo-N5-[(1-phenylindazol-3-yl)methyl]-1,2,6-thiadiazinane-3,5-dicarboxamide]: the EC50 was less than 50 nM.

With `Cc1cccc(CNC(=O)C2CC(C(=O)Nc3ccc(F)c(C#N)c3)N(C)S(=O)(=O)N2)n1` (centres unmarked) [Compound 831], the EC50 fell in the range of 100 to 10000 nM.

As to `CN1C(C(=O)Nc2ccc(F)c(Cl)c2)CC(C(=O)NCc2ccccc2-n2ccnc2)NS1(=O)=O` (centres unmarked) [Compound 910], the EC50 was 50 to 100 nM.

Regarding `CN1C(C(=O)Nc2ccc(F)c(Cl)c2)CC(C(=O)NC2CCN(c3ccnc(Cl)c3)CC2)NS1(=O)=O` (single isomer, unassigned) [1012-ISOMER-A, N3-(3-Chloro-4-fluoro-phenyl)-N5-[1-(2-chloro-4-pyridyl)-4-piperidyl]-2-methyl-1,1-dioxo-1,2,6-thiadiazinane-3,5-dicarboxamide], the concentration for a half-maximal effect (EC50) was less than 50 nM.

On to `C[C@@H](NC(=O)C1CC(C(=O)Nc2ccc(F)c(Cl)c2)N(C)S(=O)(=O)N1)c1ccccc1` (some centres unmarked) [Compound 719], for which the EC50 was less than 50 nM.

`Cc1nc(-c2ccc(F)cc2)sc1CNC(=O)C1CC(C(=O)Nc2ccc(F)c(Cl)c2)N(C)S(=O)(=O)N1` (single isomer, unassigned) [1056-ISOMER-A, N3-(3-chloro-4-fluoro-phenyl)-N5-[[2-(4-fluorophenyl)-4-methyl-thiazol-5-yl]methyl]-2-methyl-1,1-dioxo-1,2,6-thiadiazinane-3,5-dicarboxamide]: the EC50 lay within 100 to 10000 nM.

`CN1C(C(=O)Nc2ccc(F)c(Cl)c2)CC(C(=O)NCc2cnc(-c3ccccn3)s2)NS1(=O)=O` (centres unmarked) [Compound 1162]: the EC50 was less than 50 nM.

For the compound `CN1C(C(=O)Nc2ccc(F)c(Cl)c2)CC(C(=O)N[C@@H]2CCN(c3ccnc(Cl)c3)C2)NS1(=O)=O` (single isomer, unassigned) [1055-R-ISOMER-A], the EC50 is 100 to 10000 nM.

Turning to `CN1C(C(=O)Nc2ccc(F)c(Cl)c2)CC(C(=O)NCc2ccc(S(N)(=O)=O)s2)NS1(=O)=O` (centres unmarked) [Compound 682], the EC50 lay in the range of 100 to 10000 nM.

`Cc1nc(-c2ccccc2F)sc1CN(C(=O)C1CC(C(N)=O)NS(=O)(=O)N1C)c1ccc(F)c(Cl)c1` (single isomer, unassigned) [1016-ISOMER-A, N3-(3-chloro-4-fluoro-phenyl)-N-[[2-(2-fluorophenyl)-4-methyl-thiazol-5-yl]methyl]-2-methyl-1,1-dioxo-1,2,6-thiadiazinane-3,5-dicarboxamide]: the concentration giving a half-maximal response (EC50) is less than 50 nM.

`CN1C(C(=O)Nc2ccc(F)c(Cl)c2)CC(C(=O)N[C@@H]2CCN(c3ccnc(Cl)c3)C2)NS1(=O)=O` (some centres unmarked) [Compound 1055-R]: the concentration giving a half-maximal response (EC50) was less than 50 nM.

As to `CC(C)OC(=O)N1CCC(NC(=O)C2CC(C(=O)Nc3ccc(F)c(Cl)c3)N(C)S(=O)(=O)N2)CC1` (single isomer, unassigned) [Compound 766-ISOMER-A, isopropyl 4-[[5-[(3-chloro-4-fluoro-phenyl)carbamoyl]-6-methyl-1,1-dioxo-1,2,6-thiadiazinane-3-carbonyl]amino]piperidine-1-carboxylate], the EC50 is less than 50 nM.
